{"source": "patent US12544403B2", "about": "“Methods to treat mitochondrial-associated dysfunctions or diseases” (The General Hospital Corporation, priority 2019, dated 2026)", "key": {"[1]": {"experiment": "Hematocrit and COHb measurements (blood gas analyzer) in mice chronically breathing CO", "assay_type": "in vivo", "details": "for hematocrit: after three weeks of 600 ppm CO treatment", "protocol": "Eighty microliters of blood were collected by tail snip into a heparinized capillary. Hemoglobin concentration, hematocrit and the saturation of hemoglobin with oxygen (O2Hb) and carbon monoxide (COHb) were measured using a blood gas analyzer (ABL800 FLEX, Radiometer, Copenhagen, Denmark).\n(§1) Mice were housed in 80-L transparent acrylic boxes. Control chambers were provided with a constant flow of medical air at 21% FiO2. A concentration of 11% or 17% oxygen was obtained by mixing medical air with nitrogen obtained from a nitrogen generator (MAG-20; Higher Peak). A concentration of 600 ppm CO was obtained by mixing medical air with CO from a cylinder containing 2% CO (20,000 ppm) (Airgas). The total gas flow through the chamber was adjusted to maintain chamber CO2 concentrations below 0.4% (CO200; Extech). Soda lime was added to the chambers as a CO2 scavenger. The oxygen concentration was measured at the outlet port of the chamber with an O2 sensor (MiniOx 1; Ohio Medical), which was calibrated using an 8.55% O2 reference tank (Airgas). In a similar way the CO concentration was measured a CO sensor (MSA Altair PRO; MSA Safety Inc, Pittsburgh, Pa), which was calibrated using a 1000 ppm CO reference cylinder (Airgas). Oxygen levels inside the chambers were tolerated within a 0.4% offset from the target concentration by adjusting nitrogen flow as needed. Temperature was maintained at 24-26° C., and humidity was maintained at 30-70%. A standard light-dark cycle of ˜12 h light exposure was used. Mice were housed in cages with standard bedding and given unlimited access to food and water."}, "[2]": {"experiment": "Brain tissue PO2 measurement (vestibular nuclei, optical probe)", "assay_type": "in vivo, mice", "details": "optical probe (FIG. 3G)", "protocol": "Ndufs4^−/− and WT mice were anesthetized with Isoflurane (induction at 2-4%, maintenance at 1-1.5%), intubated, and mechanically ventilated with a tidal volume of 8 ml/kg, a respiratory rate of 110 breaths per minute and an inspired fraction of oxygen (FiO2) of 21%. Mice were placed in a prone position and the head was stabilized using a stereotaxic frame (ASI instruments, Inc., MI). After incision and dissection of the skin, an opening in the skull was performed using a micro-drill (MD-1200, Braintree Scientific, Inc., MA) and a PO2 probe was inserted at the desired location. The coordinates for the thalamic measurements were mediolateral [ML]=−1.00 mm, anterioposterior [AP]=−2.00 mm, and dorsoventral [DV]=−4.00 mm from the bregma, while the coordinates for the vestibular nuclei were ML=−1.25 mm, AP=−6.00 mm, and DV=−3.90 mm from the bregma. […] In some experiments the FiO2 was modulated over the course of the test and the brain PO2 was simultaneously measured.\n(§2) Mice were housed in 80-L transparent acrylic boxes. […] The oxygen concentration was measured at the outlet port of the chamber with an O2 sensor (MiniOx 1; Ohio Medical), which was calibrated using an 8.55% O2 reference tank (Airgas). In a similar way the CO concentration was measured a CO sensor (MSA Altair PRO; MSA Safety Inc, Pittsburgh, Pa), which was calibrated using a 1000 ppm CO reference cylinder (Airgas). […]"}, "Ndufs4 KO mice [3]": {"system": "Ndufs4 KO mice", "experiment": "Survival and body weight of Ndufs4 KO mice (Leigh syndrome model) breathing CO", "assay_type": "in vivo", "source_text": "All animal work in manuscript was approved by the Subcommittee on Research Animal Care and the Institutional Animal Care and Use Committee of Massachusetts General Hospital. Ndufs4^−/− were obtained from Palmiter laboratory (University of Washington). Mice lacking Phd1 (Aragones et al., 2008), Nestin-Phd2 (Mazzone et al., 2009) and Phd3 (Bishop et al., 2008) were provided by the Carmeliet laboratory (KU Leuven). Vh1L^ch/ch mice were provided by Josef Prchal (University of Utah). Genetic crosses were performed by crossing Ndus4^+/− mice with remaining strains. Throughout this study, Ndufs4^+/+ and Ndufs4^+/− mice were indiscriminately used as healthy controls, since there is no apparent phenotypical difference between these genotypes. When possible, controls from the same genetic cross were used, in order to make comparisons between reasonably similar genetic backgrounds. Pups were genotyped and weaned from mothers at 25-30 d of age. Cages and water were changed weekly. […]\nas §2"}, "Ndufs4 KO mice [4]": {"system": "Ndufs4 KO mice", "experiment": "T2-weighted brain MRI of Ndufs4 KO mice breathing CO", "assay_type": "in vivo", "source_text": "as §1\nMRI scans of the brain were performed as previously described (Ferrari et al., 2017), using respiratory gated T2-weighted RARE (rapid acquisition of refocused echoes) MRI images acquired on a 4.7-T small animal scanner (Pharmascan; Bruker) with the following parameters: RARE factor: 10, echo time: 60 ms, repetition time: 6000 ms, Averages: 8, 192×192×24 image matrix with a voxel size of 0.130×0.130×0.7 mm. Mice were under anesthesia (isoflurane between 0.5-1.5% in room air) during the imaging procedure. Images were generated using a DICOM reader (Osirix, University of Geneva)."}, "hemoglobin": {"biological_target": "hemoglobin (Homo sapiens, UniProt P68871+P69905)", "sequence (P69905 2-142 limits assumed)": "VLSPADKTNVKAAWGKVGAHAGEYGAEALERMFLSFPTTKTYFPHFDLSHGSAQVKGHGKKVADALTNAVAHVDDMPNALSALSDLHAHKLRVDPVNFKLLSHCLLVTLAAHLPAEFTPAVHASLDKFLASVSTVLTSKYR", "sequence (P68871 2-147 limits assumed)": "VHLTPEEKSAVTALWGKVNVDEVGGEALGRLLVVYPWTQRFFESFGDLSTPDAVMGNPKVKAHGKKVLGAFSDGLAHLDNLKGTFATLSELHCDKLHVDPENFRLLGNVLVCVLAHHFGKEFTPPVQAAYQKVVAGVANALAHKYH", "details": "cited from earlier work"}, "[5]": {"details": "Ndufs4 KO mice exposed to CO for 2-3 months (FIG. 3H)"}}}
{"compound": "[C-]#[O+]", "note": "[CO, carbon monoxide]", "values": [{"measurement": "hematocrit", "setting": "[1]; Ndufs4 KO mice", "result": 76, "unit": "%"}, {"measurement": "hematocrit", "setting": "[1]; WT mice", "result": 79, "unit": "%"}, {"measurement": "arterial O2Hb", "setting": "[1]; chronic, continuous 600 ppm CO in air (FIG. 3C)", "result": "~60", "unit": "%"}, {"measurement": "arterial COHb", "setting": "[1]; chronic, continuous 600 ppm CO in air, WT mice (FIG. 3C)", "result": "~40", "unit": "%"}, {"measurement": "brain PO2", "setting": "[2]; Ndufs4 KO mice chronically breathing CO at 600 ppm in air", "result": 36, "unit": "mmHg"}, {"measurement": "brain PO2", "setting": "[2]; WT mice chronically breathing CO at 600 ppm in air", "result": 19, "unit": "mmHg"}, {"measurement": "median survival", "setting": "Ndufs4 KO mice [3]; 600 ppm CO in room air (FIG. 3E)", "result": "~150", "unit": "days"}, {"measurement": "body weight", "setting": "Ndufs4 KO mice [3]; 600 ppm CO started at late-stage disease (FIG. 3D)", "result": "body weight gradually regained"}, {"measurement": "Leigh's disease lesions on MRI", "setting": "Ndufs4 KO mice [4]; [5]", "result": "not present"}, {"measurement": "new brain lesions on MRI due to chronic CO treatment", "setting": "Ndufs4 KO mice [4]; [5]", "result": "hyperintense lesions apparent in the caudoputamen region of the brain"}, {"measurement": "MRI lesions in the vestibular nucleus", "setting": "Ndufs4 KO mice [4]; late-stage Ndufs4 KO mice, 600 ppm CO for 2-3 weeks (FIG. 3F)", "result": "completely reversed lesions in the vestibular nucleus"}, {"measurement": "affinity for hemoglobin relative to oxygen", "setting": "hemoglobin", "result": 200, "unit": "fold"}]}
